Measurements as given in patent US20120082626A1, “USE OF R-BAMBUTEROL AS INHALED MEDICAMENT AND COMBINATION THERAPIES FOR TREATMENT OF RESPIRATORY DISORDERS” (priority 2009, published 2012).
“Also recorded” adds a separate entry of the source.

Key:
[1] = tested on: histamine evoked asthma in conscious guinea-pigs; assay: Protection against histamine-evoked asthma by inhaled drug in conscious guinea pigs; format: in vivo, guinea pigs (Dunkin-Hartley strain); conditions: for Latency: no collapse over 360 sec recorded as 360
Description: (§1) Test methods: Guinea pigs (Dunkin-Hartley strain, 200±30 g) were fasted overnight but given water ad libidum. The animals were restrained individually in a glass chamber and exposed to aerosol histamine generated by a nebulizer from a 0.2% aqueous solution of histamine under constant pressure at dose of 0.5 ml/min for a period of 15 sec. The animal was removed from the chamber, and its behavior was monitored. Assign of collapse and the latency time from exposure to collapse were recorded. Only the animals with latency time less than 120 sec, as an indication of sensitive to histamine, were chosen for later experiments. The animals chosen were allowed to recover completely by resting for 24 hours before experiments. R-bambuterol and racemic bambuterol hydrochloride were dissolved in saline and nublized in a nebulizer.
Study of dose-response: One hours before the exposure to aerosol histamine, animals were randomized into groups (n=8, equal sex), and Nublized R-bambuterol hydrochloride or bambuterol hydrochloride in doses of 63, 126, 252 and 504 μg/kg, and vehicle control were inhaled by the animals via a mouth and nasal mask. The numbers of collapsed animal as a result of asthmatic reaction to aerosol histamine were counted, and the latency times were recorded. Both of these parameters were used as quantitative measurements of the protective effects of the treatments on bronchospasm evoked by aerosol histamine.

[2] = tested on: histamine evoked asthma in conscious guinea-pigs; assay: Time course of anti-asthma effects after oral administration or inhalation; format: in vivo; conditions: for No. of collapsed: n=8
Description: The time course of the anti-asthma effects of R-bambuterol (R-BM) and bambuterol (RS-BM) after administered by oral and by inhalation. Test Methods: same as example 1 except the following:
For orally administration, R-Bambuterol hydrochloride or racemic bambuterol hydrochloride at 4 and 8 mg/kg, and vehicle alone, were administered to the guinea pigs orally via a stomach tube. Exposure of treated animals to aerosol histamine (as above) was done at 1, 4 and 12 hours after R-bambuterol or bambuterol treatment. For each experimental group, there were a total of 8 animals with equal number in sex, and no repeated exposure was made for individual experimental animals.
For inhalation, R-Bambuterol hydrochloride or racemic bambuterol hydrochloride at 0.252 and 0.504 mg/kg, and vehicle alone, were nebulized and administered to the guinea pigs by inhalation. Exposure of drug treated animals to aerosol histamine (as above) was done at 1,4 and 12 hours after drug treatment. For each experimental group, there were a total of 8 animals with equal number in sex, and no repeated exposure was made for individual experimental animals.

[3] = tested on: asthma evoked by intravenously administrated histamine; conditions: anesthetized guinea pigs, intravenous histamine; cited from earlier work
[4] = tested on: OVA evoked asthma in sensitized guinea-pigs; assay: Relief of antigen-evoked asthma by inhalation after challenge in OVA sensitized guinea-pigs; format: in vivo; conditions: nebulized drug inhaled after antigen challenge
Description: In an embodiment of the invention, the ovalbumin (OVA) sensitized guinea-pigs were first challenged with nebulized antigen to evoke asthma, then the animals were allowed to inhale nebulized R-bambuterol or bambuterol. […] In a further embodiment of the invention, the sensitized guinea-pigs were first pretreated with nebulized R-bambuterol or bambuterol by inhalation. After three minutes, the same animals were challenged with nebulized antigen. […] The fast onset of action in the invention can also not be explained by Svenssion's in vitro metabolic study noted above that the dominate product is mono-carbamate bambuterol and litter terbutaline at initial phase., while the major amount of terbutaline will be formed at much later phase. (Svensson et al., 1988).

[5] = tested on: bronchial and lung preparations; conditions: in vitro; cited from earlier work
[6] = tested on: histamine evoked asthma in conscious guinea-pigs; assay: Histamine-evoked asthma in conscious guinea pigs after oral administration; format: in vivo, guinea pigs (Dunkin-Hartley strain); conditions: for Latency: no collapse over 360 sec recorded as 360
Description: as §1
Comparison of the anti-asthma effects of R-bambuterol (R-BM) and bambuterol (RS-BM) administered by oral and by inhalation in conscious guinea pigs. Test methods: same as Example 1.
Study of dose-response: Same as Example 1, except the following: four hours before the exposure to aerosol histamine, animals were randomized into groups (n=8, equal male and female), and given R-bambuterol hydrochloride or racemic bambuterol hydrochloride in doses of 1.0, 2.0, 4.0 and 8.0 mg/kg, and vehicle control, orally via a stomach tube.

[7] = cited from earlier work
[8] = tested on: OVA evoked asthma in sensitized guinea pigs; assay: Airway resistance and dynamic pulmonary compliance after inhalation in OVA sensitized guinea pigs; format: in vivo; conditions: for protection against asthma attack by antigen (OVA) challenge: pretreatment by inhalation about three minutes before OVA challenge; for change of Raw and Cdyn at resting state after inhalation: before OVA challenge
Description: Sensitization of animals: Ovalbumin (10 μg/ml) was injected into guinea-pigs subcutaneously and coincidentally with an intraperitoneal injection of B. pertussis vaccine. Identical injection of ovalbumin and adjuvant were made day 15 and 21 days later. On day 28th the animals were examined and used for studies.
Test Methods: The sensitized guinea pigs wer anaethetized. A cannula was inserted into the trachea. A plueral cannula was inserted into pleural space through the chest wall. Airway resistance (Raw) and dynamic pulmonary compliance (Cdyn) were measured by using the signals of intraplueral pressure, airflow and tidal volume.
The animals were restreined in closed chamber and nebulized R-bambuterol or S-bambuterol were inhaled at the dose of 126 μg/kg. After three minutes conditioning, the animals were then challenged with nebulized OVA to evoke asthma. Airway resistance (Raw) and dynamic pulmonary compliance (Cdyn) were measured before and after evoking asthma.

[9] = tested on: OVA evoked asthma in sensitized guinea pigs; assay: Drug tolerance to R-bambuterol induced by pretreatment; format: in vivo
Description: Animal sensitization and experiment methods were similar as discribed above. Briefly, animals were divided into three groups. R-bambuterol (8 mg/kg) or S-bamburerol (8 mg/kg) or 0.9% NaCL (control) were given orally in equal volum to each group seperatedly once a day for 7 consecutive days in order to induce drug tolerances. The Protection effects of same dosage of R-bambuterol against asthma attack induced by OVA challenge were evaluated by the changes of Airway resistance (Raw) and dynamic pulmonary compliance (Cdyn).

[10] = tested on: OVA evoked asthma in sensitized guinea pigs; assay: Airway resistance in OVA asthma attack after oral administration in sensitized guinea pigs; format: in vivo
Description: Sensitized animals were divided into Saline (control), S-Bambuterol and R-bambuterol groups. R or S bambuterol were administered by both inhalation by oral ([…]). Airway resistance (Raw) and dynamic pulmonary compliance (Cdyn) were measured at resting or during astham challenge by OVA. Animal preparation and experimental methods were similar as described previously.

[11] = inhale, at maximum effective dose (R-BM 0.252, RS-BM 0.505 mg/Kg)
[12] = inhalation (R-BM 252 μg/kg, RS-BM 504 μg/kg), histamine 60 min after
[13] = inhalation (R-BM 252 μg/kg, RS-BM 504 μg/kg), histamine 240 min after
[14] = inhalation (R-BM 252 μg/kg, RS-BM 504 μg/kg), histamine 720 min after
[15] = oral (R-BM 4.0 mg/kg, RS-BM 8.0 mg/kg), histamine 60 min after
[16] = oral (R-BM 4.0 mg/kg, RS-BM 8.0 mg/kg), histamine 240 min after
[17] = oral (R-BM 4.0 mg/kg, RS-BM 8.0 mg/kg), histamine 720 min after
[18] = oral, at maximum effective dose (R-BM 4.0, RS-BM 8.0 mg/Kg)
[19] = pretreated with the labelled substance 8 mg/kg orally once a day 7 days, then R-bambuterol, OVA challenge, n=8

CN(C)C(=O)Oc1cc(OC(=O)N(C)C)cc(C(O)CNC(C)(C)C)c1 (racemic) [bambuterol]
dosage required for maximum anti-asthmatic effects (complete protection against histamine) by inhalation ([1]; inhalation): 512 µg/kg | maximum effective dose required by inhalation ([1]; inhale): Inhale (0.505) mg/Kg | Animal collapsed (%) [1, 11]: 0% | Animal collapsed (number/group) [1, 11]: 0/8 | Latency ([1]; inhaled 63 μg/Kg): 42 ± 9 s | Latency ([1]; inhaled 126 μg/Kg): 85 ± 112 s | Latency ([1]; inhaled 252 μg/Kg): 209 ± 162 s | Latency ([1]; inhaled 504 μg/Kg): 360 ± 0 s | Oral:Inhale ratio of maximum effective dose ([1]; oral dose vs inhaled dose for maximum anti-asthmatic effect): 16 | Latency [2, 12]: 360 ± 0 s | No. of collapsed [2, 12]: 0/8 | Latency [2, 13]: 360 ± 0 s | No. of collapsed [2, 13]: 0/8 | Latency [2, 14]: 287 ± 136 s | No. of collapsed [2, 14]: 2/8 | maximum anti-asthmatic effects by inhalation faster than by oral administration ([2]; inhalation vs oral): 4 h | Latency [2, 15]: 260 ± 131 s | No. of collapsed [2, 15]: 3/8 | Latency [2, 16]: 360 ± 0 s | No. of collapsed [2, 16]: 0/8 | Latency [2, 17]: 360 ± 0 s | No. of collapsed [2, 17]: 0/8 | bronchospasmolytic effects when inhaled [3]: inactive and lack bronchospasmolytic effects | relief of asthmatic symptoms after inhalation [4]: immediately relieved within matter of tenths of seconds to a couple of minutes | relaxation effects [5]: no relaxation effects | maximum effective dose required by oral (none of the histamine challenged animals collapsed) ([6]; oral): 8 mg/kg | Latency ([6]; oral 1.0 mg/Kg): 151 ± 130 s | Latency ([6]; oral 2.0 mg/Kg): 227 ± 143 s | Latency ([6]; oral 4.0 mg/Kg): 299 ± 113 s | Latency ([6]; oral 8.0 mg/Kg): 360 ± 0 s | Animal collapsed (%) [6, 18]: 0% | Animal collapsed (number/group) [6, 18]: 0/8 | maximum effective dose required by oral (none of the histamine challenged animals collapsed) ([6]; oral, listed as RS-BM): Oral (8.0 ) mg/Kg | duration of blood concentration of active parent drug ([7]; after an oral administration): up to 24 hours | concentration in lungs relative to plasma ([7]; after oral administration (Svensson 1991)): ~20 times | amount needed relative to terbutaline to reach the same concentration of terbutaline in blood ([7]; given orally, on molar basis): 5 times | tmax of terbutaline released from bambuterol later than tmax of terbutaline taken orally ([7]; oral (Olsson et al. 1984)): four | time of maximum concentration (tmax) ([7]; oral): around one | protection against asthma attack by antigen (OVA) challenge [8]: significant anti-asthma effects

CN(C)C(=O)Oc1cc(OC(=O)N(C)C)cc([C@H](O)CNC(C)(C)C)c1 [S-bambuterol]
protection effects of R-bambuterol against asthmatic attack after pretreatment ([9]; group pretreated with the labelled substance): significantly reduced | Changes in Cdyn During asthma [9, 19]: −0.25 ± 0.10 | Changes in Raw During asthma [9, 19]: +0.36 ± 0.23 | change of Raw and Cdyn in resting state ([10]; given orally): little changes in either Raw and Cdyn | change in Raw / asthmatic response during the asthmatic attack by OVA ([10]; oral): significantly enhance the asthmatic response to OVA challenge than control; also recorded: significant increases in Raw; also recorded: significantly worsen the asthmatic response | Changes in Airway resistance (Raw) at 4th min after OVA challenge ([10]; pretreated oral 4 m/kg, n=8): 2.40 ± 0.96 | Changes in Airway resistance (Raw) at 5th min after OVA challenge ([10]; pretreated oral 4 m/kg, n=8): 2.41 ± 0.98 | change of Raw and Cdyn at resting state after inhalation [8]: increasing airway resistance and reducing pulmonary dynamic compliance; also recorded: significant increase in airway resistance (Raw) and decrease in pulmonary compliance (Cdyn) | change of Raw and Cdyn at resting state after inhalation ([8]; listed as S-Bambuterol): significant increase in Raw and decrease in Cdyn | collapse induced by inhalation per se ([8]; inhalation, sensitized guinea pigs): induced a collapes of a guinea pig | protection against asthma attack by antigen (OVA) challenge [8]: no such protection at all; also recorded: inactive in protectoin against asthma attack | change of Raw and Cdyn during the asthma attack comparing to control ([8]; treated by inhalation): greater increase in airway resistance (Raw) and decrease in pulmonary compliance (Cdyn)
